From US8598344B2, “CDKI pathway inhibitors and uses thereof” (Senex Biotechnology, priority 2009, dated 2013)

What was measured:
Test in all cases: KinomeScan competition binding assay
HIPK2 = molecular target: T1, HIPK2 (Homo sapiens, UniProt Q9H2X6); conditions: 10 μM compound
T1 construct: purchased KinomeScan, a division of Ambit Biosciences
In short: (§1)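 Test compound competes with an immobilized, ATP-site-directed ligand for binding to DNA-tagged kinase. Kinase remaining on the ligand is quantified by qPCR of the DNA tag. Values are reported as percent of control binding or as binding constants (Kd).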

YSK4 = molecular target: T2, YSK4 (Homo sapiens, UniProt Q56UN5); conditions: 10 μM compound
T2 construct: purchased KinomeScan, a division of Ambit Biosciences
T2 sequence (Q56UN5 1-1328): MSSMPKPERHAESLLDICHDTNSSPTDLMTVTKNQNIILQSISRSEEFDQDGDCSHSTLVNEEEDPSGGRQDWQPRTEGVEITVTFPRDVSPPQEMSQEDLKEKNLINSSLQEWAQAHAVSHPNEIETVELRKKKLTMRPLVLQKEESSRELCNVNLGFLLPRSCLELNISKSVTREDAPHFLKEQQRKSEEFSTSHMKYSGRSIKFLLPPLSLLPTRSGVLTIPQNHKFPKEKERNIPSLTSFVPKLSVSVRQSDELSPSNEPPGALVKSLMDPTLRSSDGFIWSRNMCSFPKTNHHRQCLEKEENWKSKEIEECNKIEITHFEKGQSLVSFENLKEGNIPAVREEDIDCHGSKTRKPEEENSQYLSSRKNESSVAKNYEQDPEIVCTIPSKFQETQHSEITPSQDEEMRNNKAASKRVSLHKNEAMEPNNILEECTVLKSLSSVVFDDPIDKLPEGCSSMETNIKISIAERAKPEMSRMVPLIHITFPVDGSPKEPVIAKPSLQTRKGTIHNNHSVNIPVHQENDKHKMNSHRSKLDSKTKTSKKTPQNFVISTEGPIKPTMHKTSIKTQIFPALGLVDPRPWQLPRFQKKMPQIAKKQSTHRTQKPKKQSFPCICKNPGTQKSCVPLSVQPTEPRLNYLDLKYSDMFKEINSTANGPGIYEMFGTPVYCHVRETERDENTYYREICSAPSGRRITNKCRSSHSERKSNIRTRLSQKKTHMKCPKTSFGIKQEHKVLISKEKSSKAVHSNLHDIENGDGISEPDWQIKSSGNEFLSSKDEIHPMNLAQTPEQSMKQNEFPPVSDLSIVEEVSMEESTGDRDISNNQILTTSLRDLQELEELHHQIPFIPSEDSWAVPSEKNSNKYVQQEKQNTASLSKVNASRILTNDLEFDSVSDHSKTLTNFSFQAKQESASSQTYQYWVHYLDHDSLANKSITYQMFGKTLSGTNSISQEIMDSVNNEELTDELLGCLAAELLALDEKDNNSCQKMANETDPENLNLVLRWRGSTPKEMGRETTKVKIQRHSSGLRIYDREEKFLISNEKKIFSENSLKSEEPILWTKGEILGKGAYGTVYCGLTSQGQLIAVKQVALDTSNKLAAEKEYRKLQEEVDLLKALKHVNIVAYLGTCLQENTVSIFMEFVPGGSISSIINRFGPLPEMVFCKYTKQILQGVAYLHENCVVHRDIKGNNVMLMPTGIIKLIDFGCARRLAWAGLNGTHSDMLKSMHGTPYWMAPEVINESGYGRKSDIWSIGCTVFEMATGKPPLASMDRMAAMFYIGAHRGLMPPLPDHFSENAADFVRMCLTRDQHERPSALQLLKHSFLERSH
In short: as §1

CLK4 = molecular target: T3, CLK4 (Homo sapiens, UniProt Q9HAZ1); conditions: 10 μM compound
T3 construct: purchased KinomeScan, a division of Ambit Biosciences
T3 sequence (Q9HAZ1 whole entry): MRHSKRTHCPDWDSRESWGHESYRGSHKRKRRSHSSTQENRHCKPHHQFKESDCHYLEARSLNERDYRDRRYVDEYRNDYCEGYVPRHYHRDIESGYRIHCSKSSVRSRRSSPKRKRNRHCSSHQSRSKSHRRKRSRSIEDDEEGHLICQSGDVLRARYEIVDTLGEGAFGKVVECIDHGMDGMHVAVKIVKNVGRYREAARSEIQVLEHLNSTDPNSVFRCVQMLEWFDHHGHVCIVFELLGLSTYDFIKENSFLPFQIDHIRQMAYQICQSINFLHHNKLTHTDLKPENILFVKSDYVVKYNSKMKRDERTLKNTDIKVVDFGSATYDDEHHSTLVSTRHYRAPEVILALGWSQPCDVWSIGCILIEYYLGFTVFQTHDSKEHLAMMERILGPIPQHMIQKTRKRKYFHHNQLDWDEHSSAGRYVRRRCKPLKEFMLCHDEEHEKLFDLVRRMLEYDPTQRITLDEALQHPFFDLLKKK
In short: as §1

CDK8 = molecular target: T4, CDK8 (Homo sapiens, UniProt P49336); conditions: for POC ligand binding, CDK8: 10 μM compound; for Kd: read-out: CDK8 inhibition (Kd); for inhibition of CDK8: 10 μM
T4 construct: purchased KinomeScan, a division of Ambit Biosciences
T4 sequence (P49336 whole entry): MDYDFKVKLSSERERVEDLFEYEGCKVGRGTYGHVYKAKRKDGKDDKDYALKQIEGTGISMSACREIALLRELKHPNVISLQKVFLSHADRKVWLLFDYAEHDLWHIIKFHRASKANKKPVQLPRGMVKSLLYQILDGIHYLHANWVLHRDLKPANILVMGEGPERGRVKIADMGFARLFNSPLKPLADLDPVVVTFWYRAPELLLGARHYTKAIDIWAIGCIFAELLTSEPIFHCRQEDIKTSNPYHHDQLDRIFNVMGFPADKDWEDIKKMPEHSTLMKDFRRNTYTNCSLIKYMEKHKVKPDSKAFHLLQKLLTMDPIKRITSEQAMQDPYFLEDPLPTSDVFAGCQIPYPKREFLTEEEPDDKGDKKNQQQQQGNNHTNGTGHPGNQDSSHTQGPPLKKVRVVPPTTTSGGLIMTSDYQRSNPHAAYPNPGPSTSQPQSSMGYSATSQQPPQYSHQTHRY
In short: as §1

CLK1 = molecular target: T5, CLK1 (Homo sapiens, UniProt P49759); conditions: 10 μM compound
T5 construct: purchased KinomeScan, a division of Ambit Biosciences
T5 sequence (P49759 whole entry): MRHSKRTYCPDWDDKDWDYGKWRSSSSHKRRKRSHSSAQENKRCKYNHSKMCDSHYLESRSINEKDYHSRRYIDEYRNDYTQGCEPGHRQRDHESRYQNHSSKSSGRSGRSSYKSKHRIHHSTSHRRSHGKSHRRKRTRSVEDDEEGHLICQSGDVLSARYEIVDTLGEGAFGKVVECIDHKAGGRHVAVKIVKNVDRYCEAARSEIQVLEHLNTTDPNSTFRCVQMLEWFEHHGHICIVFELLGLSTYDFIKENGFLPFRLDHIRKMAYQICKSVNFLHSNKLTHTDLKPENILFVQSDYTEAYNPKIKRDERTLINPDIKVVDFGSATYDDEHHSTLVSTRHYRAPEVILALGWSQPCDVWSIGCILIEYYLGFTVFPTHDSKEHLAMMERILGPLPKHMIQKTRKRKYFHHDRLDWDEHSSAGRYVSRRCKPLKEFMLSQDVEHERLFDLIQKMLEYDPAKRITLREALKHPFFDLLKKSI
In short: as §1

CLK2 = molecular target: T6, CLK2 (Homo sapiens, UniProt P49760); conditions: 10 μM compound
T6 construct: purchased KinomeScan, a division of Ambit Biosciences
T6 sequence (P49760 whole entry): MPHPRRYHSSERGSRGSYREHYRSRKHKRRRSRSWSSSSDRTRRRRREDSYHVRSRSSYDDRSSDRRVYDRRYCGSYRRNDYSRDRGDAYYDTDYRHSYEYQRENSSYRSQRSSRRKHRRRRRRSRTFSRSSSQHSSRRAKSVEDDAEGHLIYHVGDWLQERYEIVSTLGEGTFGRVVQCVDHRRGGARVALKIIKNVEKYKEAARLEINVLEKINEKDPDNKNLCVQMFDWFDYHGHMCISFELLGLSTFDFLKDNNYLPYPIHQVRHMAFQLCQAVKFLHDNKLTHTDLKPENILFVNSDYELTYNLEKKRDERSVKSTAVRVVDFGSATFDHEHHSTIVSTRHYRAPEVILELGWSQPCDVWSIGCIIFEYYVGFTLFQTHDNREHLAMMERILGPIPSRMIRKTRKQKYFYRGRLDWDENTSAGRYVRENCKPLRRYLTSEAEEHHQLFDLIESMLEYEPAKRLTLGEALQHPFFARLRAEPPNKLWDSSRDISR
In short: as §1

T1 sequence (Q9H2X6 whole entry): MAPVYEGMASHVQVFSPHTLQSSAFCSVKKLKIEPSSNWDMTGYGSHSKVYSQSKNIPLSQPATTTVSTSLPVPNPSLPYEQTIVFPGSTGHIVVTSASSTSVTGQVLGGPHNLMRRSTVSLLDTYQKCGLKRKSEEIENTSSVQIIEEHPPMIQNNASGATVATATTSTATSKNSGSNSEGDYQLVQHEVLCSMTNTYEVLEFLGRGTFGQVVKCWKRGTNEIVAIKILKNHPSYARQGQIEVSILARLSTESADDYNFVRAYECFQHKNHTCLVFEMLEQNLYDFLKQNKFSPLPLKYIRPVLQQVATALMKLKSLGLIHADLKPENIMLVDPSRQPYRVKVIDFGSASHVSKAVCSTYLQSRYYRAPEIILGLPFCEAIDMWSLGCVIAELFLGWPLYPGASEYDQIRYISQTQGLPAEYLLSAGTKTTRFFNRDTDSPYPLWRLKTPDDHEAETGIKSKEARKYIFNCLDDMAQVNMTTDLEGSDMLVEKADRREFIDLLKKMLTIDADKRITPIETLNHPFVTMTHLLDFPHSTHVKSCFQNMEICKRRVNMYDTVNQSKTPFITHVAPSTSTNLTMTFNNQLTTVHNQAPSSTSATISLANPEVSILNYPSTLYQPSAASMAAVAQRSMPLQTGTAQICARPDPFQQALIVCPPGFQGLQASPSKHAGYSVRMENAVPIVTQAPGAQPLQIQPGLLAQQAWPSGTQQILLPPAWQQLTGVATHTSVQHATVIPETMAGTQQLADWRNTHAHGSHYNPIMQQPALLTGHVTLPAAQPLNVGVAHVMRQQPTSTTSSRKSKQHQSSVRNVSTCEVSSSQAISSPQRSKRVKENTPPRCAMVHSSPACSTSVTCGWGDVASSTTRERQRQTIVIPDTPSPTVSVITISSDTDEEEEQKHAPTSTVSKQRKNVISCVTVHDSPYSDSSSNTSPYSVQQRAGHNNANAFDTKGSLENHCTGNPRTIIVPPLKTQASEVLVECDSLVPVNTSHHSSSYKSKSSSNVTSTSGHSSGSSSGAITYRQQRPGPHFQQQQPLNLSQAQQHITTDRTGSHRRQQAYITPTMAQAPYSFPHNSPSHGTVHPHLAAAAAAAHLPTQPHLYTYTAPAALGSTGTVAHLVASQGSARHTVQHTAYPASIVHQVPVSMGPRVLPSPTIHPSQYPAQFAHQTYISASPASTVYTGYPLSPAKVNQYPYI

Structure (SMILES)	POC ligand binding, HIPK2 (HIPK2)	POC ligand binding, YSK4 (YSK4)	POC ligand binding, CLK4 (CLK4)	POC ligand binding, CDK8 (CDK8)	Kd (CDK8)	POC ligand binding, CLK1 (CLK1)	POC ligand binding, CLK2 (CLK2)	inhibition of CDK8 (CDK8)	POC ligand binding, HIPK2 (HIPK2; 10 µM)	POC ligand binding, YSK4 (YSK4; 10 µM)	POC ligand binding, CLK4 (CLK4; 10 µM)	POC ligand binding, CDK8 (CDK8; 10 µM)	POC ligand binding, CLK1 (CLK1; 10 µM)	POC ligand binding, CLK2 (CLK2; 10 µM)
N#Cc1ccc2ncnc(NCc3ccc(Cl)cc3)c2c1 [compound 20]	28 POC	31 POC	11 POC	0.15 POC	0.24 µM	12 POC	16 POC	–	–	–	–	–	–	–
N#Cc1ccc2ncnc(NCCc3ccc4ccccc4c3)c2c1 [compound 26]	73 POC	44 POC	26 POC	0 POC	0.57 µM	32 POC	58 POC	~100%	–	–	–	–	–	–
CCCNc1ncnc2ccc(N3CCOCC3)cc12 [compound 46]	30 POC	91 POC	24 POC	100 POC	–	48 POC	66 POC	–	–	–	–	–	–	–
CC(C)CNc1ncnc2ccc(C(F)(F)F)cc12 [compound 45]	20 POC	41 POC	7.8 POC	37 POC	–	8.4 POC	8.6 POC	–	–	–	–	–	–	–
N#Cc1ccc2ncnc(NCc3ccc4ccccc4c3)c2c1 [compound 14]	–	–	–	–	2.5 µM	–	–	–	34 POC	21 POC	16 POC	0.4 POC	18 POC	24 POC
N#Cc1ccc2ncnc(NCc3ccc4ccccc4c3)c2c1 [compound 43]	–	–	–	–	0.24 µM	–	–	–	30 POC	29 POC	9.6 POC	1.6 POC	9 POC	9.6 POC
N#Cc1ccc2ncnc(NCCc3ccccc3)c2c1 [compound 1]	18 POC	5.4 POC	8 POC	–	0.83 µM	4.2 POC	3.8 POC	> 99%	–	–	–	–	–	–
COc1ccc2ncnc(NCCc3ccccc3)c2c1 [compound 44]	62 POC	39 POC	17 POC	24 POC	–	17 POC	34 POC	–	–	–	–	–	–	–
